Where two headings read alike, the source gives them in different places.
What was measured:
22RV1 cells = test: Cell proliferation inhibition assay in 22RV1 cells (CellTiter-Glo, 7 days); assay type: cell-based, human; conditions: Homo sapiens
Experimental: • 1. The human prostate cancer cell lines 22RV1 and LNCaP were purchased from ATCC. […] The cell concentration was adjusted to an appropriate concentration (determined based on the results of cell density optimization experiments), and the cells were seeded into a 96-well plate. A 100 µL cell suspension was added, resulting in 3000 cells per well. […] On the second day, for 22Rv1 cells, test compounds at different concentrations were added, and the cells were incubated at 37°C in a 5% CO2 incubator for 7 days; for LNCaP cells, test compounds at different concentrations were added first, and after 1 hour of treatment, 0.2 nM DHT was added. The cells were then incubated at 37°C in a 5% CO2 incubator for 7 days. • 4. After the incubation period, a volume of CellTiter-Glo detection reagent equal to the volume of the culture medium was added to each well. The plate was shaken and mixed thoroughly for 5 minutes, then incubated at room temperature for 10 minutes. Readings were taken using a PerkinElmer EnVision microplate reader. • 5.
The IC50 curve was fitted and the IC50 value was calculated using the software GraphPad Prism 8 with the calculation formula XY-analysis/Nonlinear regression (curve fit)/Dose response-Inhibition/log (inhibitor) vs. response-Variable slope (four parameters).

[1] = Mouse pharmacokinetic test; assay type: in vivo, ICR mice; conditions: 30 mg/kg, PO-30mpk; for Tmax: read-out: Tmax
Experimental: Formulation preparation: The dosing solutions were prepared on the day of administration.
Six healthy male naive ICR mice weighing 25-30 g were selected and divided into two groups (intravenous and oral groups), with three mice in each group, and administered a single dose. […] Feeding was resumed 4 h after administration. Timing was initiated following intravenous and oral administration. […] The collected whole blood was briefly vortexed twice for mixing, placed on wet ice, and centrifuged at 4°C and 8000 rpm for 5 min within 1 h. The supernatant plasma was collected and stored at -80°C until processing and analysis. Table 3: Pharmacokinetics in mice

| Structure (SMILES) | IC50 (22RV1 cells; 168 h) | also measured |
| --- | --- | --- |
| CC(C)(c1ccc(-c2ccc(OCc3ccnc(N4CC(S(=N)(=O)C5CC5)C4)n3)cc2)cc1)c1cc(Cl)c(OCCCl)c(C#N)c1 (racemic) [Compound 295] |  | IC50 (22RV1 cells; 22Rv1, 168 h): 330 nM |
| CC(C)(c1ccc(-c2cnc(OCc3ccnc(N4CC(S(C)(=N)=O)C4)n3)cn2)cc1)c1cc(Cl)c(OCCCl)c(C#N)c1 (racemic) [Compound 323] |  | IC50 (22RV1 cells; 22Rv1, 168 h): 570 nM |
| CC(C)(c1ccc(-c2cnc(OCc3ccnc(N4CC(S(=N)(=O)C5CC5)C4)n3)cn2)cc1)c1cc(Cl)c(OCCCl)c(C#N)c1 (racemic) [Compound 350] |  | IC50 (22RV1 cells; 22Rv1, 168 h): 460 nM |
| CC(C)(c1ccc(-c2ccc(OCc3ccnc(S(C)(=O)=O)n3)cc2)cc1)c1cc(Cl)c(OCCCl)c(C#N)c1 [Compound 1] | 1070 nM |  |
| CC(C)(c1ccc(-c2cccc(OCc3ccnc(S(C)(=O)=O)n3)c2)cc1)c1cc(Cl)c(OCCCl)c(C#N)c1 [Compound 4] | 1380 nM |  |
| CC(C)(c1ccc(-c2cccc(OCc3ccnc(P(C)(C)=O)n3)c2)cc1)c1cc(Cl)c(OCCCl)c(C#N)c1 [Compound 6] |  | AUC(0-inf) ([1]; in vivo): 447 µg·h/mL; Cmax ([1]; in vivo): 62800 ng/mL; half-life ([1]; in vivo): 2.2 h; Tmax ([1]; in vivo): 2.7 h |
| CC(C)(c1ccc(N2CCC(Oc3ccnc(P(C)(C)=O)n3)CC2)cc1)c1cc(Cl)c(OCCCl)c(C#N)c1 [Compound 10] |  | AUC(0-inf) ([1]; in vivo): 316 µg·h/mL; Cmax ([1]; in vivo): 31000 ng/mL; half-life ([1]; in vivo): 5.4 h; Tmax ([1]; in vivo): 3.3 h |
| CC(C)(c1ccc(-c2ccc(OCc3ccnc(P(C)(C)=O)n3)cn2)cc1)c1cc(Cl)c(OCCCl)c(C#N)c1 [Compound 15] | 1350 nM |  |
| CC(C)(c1ccc(-c2ccc(OCc3ccnc(N=S4(=O)CCCC4)n3)nc2)cc1)c1cc(Cl)c(OCCCl)c(C#N)c1 [Compound 18] | 1460 nM |  |
| CC(C)(c1ccc(-c2ccc(OCc3ccnc(N=S4(=O)CCOCC4)n3)nc2)cc1)c1cc(Cl)c(OCCCl)c(C#N)c1 [Compound 19] | 860 nM |  |
| CC(C)(c1ccc(-c2ccc(C#Cc3ccnc(N=S4(=O)CCCC4)n3)cc2)cc1)c1cc(Cl)c(OCCCl)c(C#N)c1 [Compound 21] | 340 nM |  |
| CC(C)(c1ccc(-c2ccc(OCc3ccnc(N4CC5(C4)CS(=O)(=O)C5)n3)cc2)cc1)c1cc(Cl)c(OCCCl)c(C#N)c1 [Compound 24] |  | IC50 (22RV1 cells; 22Rv1, 168 h): 1030 nM |
| CC(C)(c1ccc(-c2cnc(OCc3ccnc(N4CC5(COC5)C4)n3)nc2)cc1)c1cc(Cl)c(OCCCl)c(C#N)c1 [Compound 35] | 840 nM |  |
| CC(C)(c1ccc(-c2cnc(OCc3ccnc(N=S4(=O)CCCC4)n3)nc2)cc1)c1cc(Cl)c(OCCCl)c(C#N)c1 [Compound 36] | 1350 nM |  |
| CC(C)(c1ccc(-c2ccc(OCc3ccnc(P(C)(C)=O)n3)cc2)cc1)c1cnc2c(cnn2CCCl)c1 [Compound 42] |  | AUC(0-inf) ([1]; plasma): 422 µg·h/mL; Cmax ([1]; plasma): 34300 ng/mL; half-life ([1]; plasma): 4.42 h; Tmax ([1]; plasma): 3.33 h |
| CC(C)(c1ccc(-c2ccc(OCc3ccnc(N=S4(=O)CCOCC4)n3)cc2)cc1)c1cc(Cl)c(OCCCl)c(C#N)c1 [Compound 43] | 300 nM |  |
| CC(C)(c1ccc(-c2ccc(OCc3ccnc(N4CC5(COC5)C4)n3)cc2)cc1)c1cnc2c(cnn2CCCl)c1 [Compound 45] | 990 nM |  |
| CC(C)(c1ccc(-c2ccc(OCc3ccnc(N4CC(O)C4)n3)cc2)cc1)c1cc(Cl)c(OCCCl)c(C#N)c1 [Compound 54] | 1420 nM |  |
| CC(C)(c1ccc(-c2ccc(OCC3CCOCC3)cc2)cc1)c1cc(Cl)c(OCCCl)c(C#N)c1 [Compound 74] | 290 nM |  |
| CC(C)(c1ccc(-c2ccc(OC3CCN(c4ccnc(N5CC6(COC6)C5)n4)CC3)cc2)cc1)c1cc(Cl)c(OCCCl)c(C#N)c1 [Compound 77] | 1470 nM |  |
| CC(C)(c1ccc(-c2ccc(OC3CCN(c4ccnc(N5CC6(C5)CS(=O)(=O)C6)n4)CC3)cc2)cc1)c1cc(Cl)c(OCCCl)c(C#N)c1 [Compound 78] | 710 nM |  |

| Structure (SMILES) | IC50 (22RV1 cells; 168 h) | also measured |
| --- | --- | --- |
| CC(C)(c1ccc(-c2ccc(OCC3CC(CN4CC5(C4)CS(=O)(=O)C5)C3)cc2)cc1)c1cc(Cl)c(OCCCl)c(C#N)c1 (stereo not drawn) [Compound 80] | 110 nM |  |
| C[S+]([O-])c1nccc(COc2ccc(-c3ccc(C(C)(C)c4cc(Cl)c(OCCCl)c(C#N)c4)cc3)cc2)n1 (stereo not drawn) [Compound 81] | 860 nM |  |
| CC(C)(c1ccc(-c2ccc(OCc3ccnc(N4CC5(C4)CS(=O)(=O)C5)n3)cn2)cc1)c1cc(Cl)c(OCCCl)c(C#N)c1 [Compound 84] | 1050 nM |  |
| CC(C)(c1ccc(-c2ccc(OCc3ccnc(N=S4(=O)CCNCC4)n3)cn2)cc1)c1cc(Cl)c(OCCCl)c(C#N)c1 [Compound 86] | 630 nM |  |
| CC1(NS(C)(=O)=O)CN(c2nccc(COc3ccc(-c4ccc(C(C)(C)c5cc(Cl)c(OCCCl)c(C#N)c5)cc4)cc3)n2)C1 [Compound 90] | 1320 nM |  |
| CN(C1CN(c2nccc(COc3ccc(-c4ccc(C(C)(C)c5cc(Cl)c(OCCCl)c(C#N)c5)cc4)cc3)n2)C1)S(C)(=O)=O [Compound 93] | 1010 nM |  |
| CC(C)(c1ccc(-c2ccc(OCc3ccnc(N4CC5(CNC5)C4)n3)cc2)cc1)c1cc(Cl)c(OCCCl)c(C#N)c1 [Compound 104] | 920 nM |  |
| CC(C)(c1ccc(-c2ccc(OCc3ccnc(N4CC5(C4)CN(S(C)(=O)=O)C5)n3)cc2)cc1)c1cc(Cl)c(OCCCl)c(C#N)c1 [Compound 105] | 300 nM |  |
| CC(C)(c1ccc(-c2ccc(OCC3CC4(C3)CS(=O)(=O)C4)cc2)cc1)c1cc(Cl)c(OCCCl)c(C#N)c1 [Compound 106] | 190 nM |  |
| CC(C)(c1ccc(-c2ccc(OCc3ccnc(N4CC5(CC(S(C)(=O)=O)C5)C4)n3)cc2)cc1)c1cc(Cl)c(OCCCl)c(C#N)c1 [Compound 121] | 190 nM |  |
| CC(C)(c1ccc(-c2ccc(OCc3ccnc(N4CC5(CC(=O)C5)C4)n3)cc2)cc1)c1cc(Cl)c(OCCCl)c(C#N)c1 [Compound 122] | 1280 nM |  |
| CC(C)(c1ccc(-c2ccc(OCc3ccnc(N=S4(=O)CCN(CC(F)(F)F)CC4)n3)cn2)cc1)c1cc(Cl)c(OCCCl)c(C#N)c1 [Compound 139] | 650 nM |  |
| CC(C)(c1ccc(-c2ccc(OC3CC4CCC(C3)N4c3ccnc(P(C)(C)=O)n3)nc2)cc1)c1cc(Cl)c(OCCCl)c(C#N)c1 (stereo not drawn) [Compound 140] | 530 nM |  |
| CC(C)(c1ccc(-c2ccc(OC3CCN(c4ccnc(N5CC(S(C)(=O)=O)C5)n4)CC3)cc2)cc1)c1cc(Cl)c(OCCCl)c(C#N)c1 [Compound 143] | 900 nM |  |
| CC(C)(c1ccc(-c2ccc(OCc3ccnc(C4CNC4)n3)cc2)cc1)c1cc(Cl)c(OCCCl)c(C#N)c1 [Compound 144] | 740 nM |  |
| CC(C)(c1ccc(-c2ccc(OC3CCN(c4ccnc(N5CC(S(C)(=O)=O)C5)n4)CC3)nc2)cc1)c1cc(Cl)c(OCCCl)c(C#N)c1 [Compound 148] | 770 nM |  |
| CC(C)(c1ccc(-c2ccc(OCc3ccnc(P(C)(C)=O)n3)cc2)cc1)c1cc(Cl)c(OCC2CCC2)c(C#N)c1 [Compound 152] | 330 nM |  |
| CC(C)(c1ccc(-c2cc(F)c(OCc3ccnc(N=S4(=O)CCOCC4)n3)cn2)cc1)c1cc(Cl)c(OCCCl)c(C#N)c1 [Compound 153] | 780 nM |  |
| CC(C)(c1ccc(-c2ccc(OCc3ccnc(N=S4(=O)CCOCC4)n3)c(F)n2)cc1)c1cc(Cl)c(OCCCl)c(C#N)c1 [Compound 154] | 260 nM |  |
| CC(C)(c1ccc(-c2ccc(OCc3scnc3P(C)(C)=O)cc2)cc1)c1cc(Cl)c(OCCCl)c(C#N)c1 [Compound 157] | 480 nM |  |
| CC(C)(c1ccc(-c2ccc(/C=C/c3ccnc(P(C)(C)=O)n3)cc2)cc1)c1cc(Cl)c(OCCCl)c(C#N)c1 [Compound 228] |  | AUC(0-inf) ([1]; plasma, po): 242 µg·h/mL; Cmax ([1]; plasma, po): 14500 ng/mL; half-life ([1]; plasma, po): 6 h; Tmax ([1]; plasma, po): 4 h |

From EP4778922A1, “BICYCLIC COMPOUND, AND PREPARATION METHOD THEREFOR AND PHARMACEUTICAL USE THEREOF” (Shanghai Jeyou Pharmaceutical Co., Ltd., priority 2023, dated 2025)
